# From patent publication US6043220A, “Threonine-containing protegrins” (IntraBiotics Pharmaceuticals, Inc., priority 1997, dated 2000)
# Square brackets hold non-standard residues; d marks the D form. Ends that are not written are not given here. Dbu = diaminobutyric acid (X in this publication); code O = not defined here; Orn = NCCC[C@H](N)C(=O)O
# Tests used:
# [1] = test system: ME-180 (human cervical carcinoma) cells; test: Cytotoxicity, MTT assay; assay type: cell-based; details: ME-180 cells
# Method: Native protegrin PG-1 (SEQ ID NO:1) and melittin (SEQ ID NO:19) were tested as controls.
# human red blood cells = test: Hemolytic activity against human red blood cells; details: FIG. 1; compared with native PG-1 and melittin
# Method: In the assay, various concentrations of peptides were incubated with human red blood cells and the percentage of hemolysis determined.
# [2] = test system: Pseudomonas aruginosa (Psa); test: MIC, antimicrobial activity against Psa; assay type: cell-based
# Text: (§1) Methods were as described in WO 97/18826.
# [3] = test system: methicillin resistant Staphylococcus aureus (MRSA); test: MIC, antimicrobial activity against MRSA; assay type: cell-based
# Text: as §1
# [4] = test system: vancomycin resistant Enterococcus faecium (VREF); test: MIC, antimicrobial activity against VREF; assay type: cell-based
# Text: as §1
# [5] = test system: Candida albicans (C. alb); test: MIC, antimicrobial activity against C. alb; assay type: cell-based
# Text: as §1
# E. coli [6] = test: In vitro serum availability, MCZ assay, indicator bacteria E. coli; assay type: cell-based; details: 50 μg/mL peptide; 90% serum as diluent; activity in serum vs same peptide without serum (100%)
# Method: (§2) Peptide was tested at 50 μg/ml against two different strains of indicator bacteria (E. coli and VRE) both in the presence and absence of serum. For experiments performed in the presence of serum, 90% serum was used as the peptide diluent. Native PG-1 (SEQ ID NO:1) was tested as a control.
# (§3) Percent availability refers to the activity of the indicated peptide in serum as compared with the activity of the same peptide in the absence of serum (assigned a value of 100%).
# VRE = test: In vitro serum availability, MCZ assay, indicator bacteria VRE; assay type: cell-based, vancomycin-resistant Enterococcus faecium or faecalis; details: 50 μg/mL peptide; 90% serum as diluent; activity in serum vs same peptide without serum (100%)
# Method: as §2, §3
# E. coli [7] = test: Antimicrobial activity against E. coli in borate buffered saline with and without lysozyme; assay type: cell-based; details: presence vs absence of lysozyme
# Text: The protegrins of the invention retain their activity against microbes in the context of borate solutions that are commonly used in eye care products. […] This effect was more pronounced when the PG-3 was autoclaved and similar patterns were obtained for both the free-acid and the amide forms. Accordingly, the protegrins may be used as preservatives in such compositions or as antimicrobials for treatment of eye infections, such as conjunctivitis and corneal ulcers.
compound,measurement,setting,value
"CC[C@H](C)[C@H](NC(=O)CN)C(=O)NCC(=O)N[C@@H](C)C(=O)N[C@H](C(=O)N[C@@H](CC(C)C)C(=O)N[C@@H](CCCCN)C(=O)N[C@H](C(=O)N[C@@H](CC(C)C)C(=O)N[C@H](C(=O)N[C@H](C(=O)NCC(=O)N[C@@H](CC(C)C)C(=O)N1CCC[C@H]1C(=O)N[C@@H](C)C(=O)N[C@@H](CC(C)C)C(=O)N[C@H](C(=O)N[C@@H](CO)C(=O)N[C@@H](Cc1c[nH]c2ccccc12)C(=O)N[C@H](C(=O)N[C@@H](CCCCN)C(=O)N[C@@H](CCCNC(=N)N)C(=O)N[C@@H](CCCCN)C(=O)N[C@@H](CCCNC(=N)N)C(=O)N[C@@H](CCC(N)=O)C(=O)N[C@@H](CCC(N)=O)C(N)=O)[C@@H](C)CC)[C@@H](C)CC)[C@@H](C)O)[C@@H](C)O)C(C)C)C(C)C [Melittin, reference compound]","EC50, MTT assay",[1],8.0 µg/mL
"CC(C)C[C@H](NC(=O)[C@H](CCCNC(=N)N)NC(=O)CNC(=O)CNC(=O)[C@@H](N)CCCNC(=N)N)C(=O)N[C@H]1CSSC[C@@H](C(=O)N[C@H](C(=O)NCC(=O)N[C@@H](CCCNC(=N)N)C(N)=O)C(C)C)NC(=O)[C@H](C(C)C)NC(=O)[C@@H]2CSSC[C@H](NC(=O)[C@H](Cc3ccc(O)cc3)NC1=O)C(=O)N[C@@H](CCCNC(=N)N)C(=O)N[C@@H](CCCNC(=N)N)C(=O)N[C@@H](CCCNC(=N)N)C(=O)N[C@@H](Cc1ccccc1)C(=O)N2 [Native PG-1, RGGRLCYCRRRFCVCVGR-NH2, reference compound]",hemolytic activity against human red blood cells (in words),human red blood cells,hemolytic against human red blood cells
JLCFCOOOFCTCV-NH2,MIC Psa,[2],4 μ g/ml
same,MIC MRSA,[3],64 μ g/ml
same,MIC VREF,[4],2 μ g/ml
same,MIC C. alb.,[5],64 μ g/ml
JTCFCOOOFCTCV-NH2,MIC Psa,[2],16 μ g/ml
same,MIC MRSA,[3],> 128 μ g/ml
same,MIC VREF,[4],32 μ g/ml
same,MIC C. alb.,[5],> 128 μ g/ml
JTCYCOOOFCVCV-NH2,MIC Psa,[2],2 μ g/ml
same,MIC MRSA,[3],32 μ g/ml
same,MIC VREF,[4],6.67 μ g/ml
same,MIC C. alb.,[5],> 64 μ g/ml
OGGOTCYCOOOFCVCVGO-NH2 ([code O]GG[code O]TCYC[code O][code O][code O]FCVCVG[code O]-NH2; cysteine pairing not given here; reading uncertain; also: printed as OGGOTCYCOOOFCVCVGO-NH2),In Vitro Serum Availability (%) E. coli,E. coli [6],40%
same,In Vitro Serum Availability (%) VRE,VRE,9%
same,MIC Psa,[2],1 μ g/ml
same,MIC MRSA,[3],> 64 μ g/ml
same,MIC VREF,[4],3.3 μ g/ml
same,MIC C. alb.,[5],> 64 μ g/ml
OTOLCYCOZOFCVCV-NH2,In Vitro Serum Availability (%) E. coli,E. coli [6],30%
same,In Vitro Serum Availability (%) VRE,VRE,8%
same,MIC Psa,[2],2 μ g/ml
same,MIC MRSA,[3],64 μ g/ml
same,MIC VREF,[4],8 μ g/ml
same,MIC C. alb.,[5],> 64 μ g/ml
OTTLCYCOGOFCVCVGO-NH2 ([Orn]TTLCYC[Orn]G[Orn]FCVCVG[Orn]-NH2; cysteine pairing not given here),In Vitro Serum Availability (%) E. coli,E. coli [6],10%
same,In Vitro Serum Availability (%) VRE,VRE,3%
same,MIC Psa,[2],0.5 μ g/ml
same,MIC MRSA,[3],32 μ g/ml
same,MIC VREF,[4],1 μ g/ml
same,MIC C. alb.,[5],32 μ g/ml
"PG-3: naturally-occurring protegrin from porcine leukocytes; free-acid and amide forms (RGGGLCYCRRRFCVCVGR; ends and bridges not checked; also: free acid or amide forms; UniProt P32196 131-148, looked up)",effect of lysozyme on antimicrobial effectiveness,E. coli [7],the presence of lysozyme enhanced the effectiveness
RGGRLCTCRRRFCVCVGR-NH2 (ends and bridges not checked) [[^7 T]PG-1],"EC50, MTT assay",[1],50.4 µg/mL
same,hemolytic activity against human red blood cells (in words),human red blood cells,decreased hemolytic activity
RGGRLCYCRRRFCTCVGR-NH2 (ends and bridges not checked) [[^14 T]PG-1],"EC50, MTT assay",[1],154.8 µg/mL
same,cytotoxicity compared with native PG-1 and melittin (in words),[1]; MTT assay,less cytotoxic than native PG-1 and the control peptide melittin
same,hemolytic activity against human red blood cells (in words),human red blood cells,decreased hemolytic activity
RGGRLCYCRRRFCVCTGR-NH2 (ends and bridges not checked) [[^16 T]PG-1],"EC50, MTT assay",[1],122.6 µg/mL
same,hemolytic activity against human red blood cells (in words),human red blood cells,decreased hemolytic activity
RGGRTCYCRRRFCVCVGR-NH2 (ends and bridges not checked) [[^5 T]PG-1],In Vitro Serum Availability (%) E. coli,E. coli [6],10%
same,In Vitro Serum Availability (%) VRE,VRE,1.6%
same,MIC Psa,[2],2 μ g/ml
same,MIC MRSA,[3],8 μ g/ml
same,MIC VREF,[4],0.3 μ g/ml
same,MIC C. alb.,[5],8 μ g/ml
same,"EC50, MTT assay",[1],101.3 µg/mL
same,hemolytic activity against human red blood cells (in words),human red blood cells,decreased hemolytic activity
WTCYCOOOFCVCV-NH2 (WTCYC[code O][code O][code O]FCVCV-NH2; cysteine pairing not given here; reading uncertain; also: printed as WTCYCOOOFCVCV-NH2),In Vitro Serum Availability (%) E. coli,E. coli [6],4%
same,In Vitro Serum Availability (%) VRE,VRE,2%
same,MIC Psa,[2],1 μ g/ml
same,MIC MRSA,[3],16 μ g/ml
same,MIC VREF,[4],0.25 μ g/ml
same,MIC C. alb.,[5],1.6 μ g/ml
XTXLCYCXXXFCTCV-NH2 ([Dbu]T[Dbu]LCYC[Dbu][Dbu][Dbu]FCTCV-NH2; not fully specified (N-terminus); cysteine pairing not given here) [*XTXLCYCXXXFCTCV-NH2],MIC Psa,[2],1.3 μ g/ml
same,MIC MRSA,[3],16 μ g/ml
same,MIC VREF,[4],1 μ g/ml
same,MIC C. alb.,[5],8 μ g/ml
